Assay results reported in PubChem BioAssay AID179 (DTP/NCI, 2004).
Activity calls are given as the source filed them.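 How the source made its calls: active means compounds giving half or more protection of infected cells from virus-caused growth loss, again on retest; inactive means the rest.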 Where a SMILES comes first, the peptide text is derived from it. The star is where a group is joined. Boc = CC(C)(C)OC(=O)*; OBn = c1ccc(CO*)cc1

System: CEM cells HIV-1 protection, formazan growth assay
Assay: NCI AIDS Antiviral Assay
Details: for IC50: measured here: growth of uninfected CEM cells
Procedure, shortened: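 Human CEM cells, uninfected and HIV-1-infected, exposed to five drug concentrations; growth measured by soluble formazan assay and scored as percent protection from infection, with protecting compounds retested.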

With `O=C1C(=O)C(c2ccccc2)Oc2ccccc21` (centres undefined) the EC50 was > 200 µM and the IC50 was 25.1 µM.
With `Cc1cc(N=Nc2ccc(NC(=O)c3ccc(NC(=O)c4ccccc4)cc3)c3ccc(S(=O)(=O)O)cc23)ccc1N=Nc1ccc2c(O)cc(S(=O)(=O)O)cc2c1` the EC50 was > 50.1 µM and the IC50 was > 50.1 µM.
`CN(C)CCNc1nc(-c2cccs2)cc(-c2cccs2)n1` was tested, and the EC50 was > 759 µM and the IC50 was 6.46 µM.
In the case of `CC(C)(C)OC(=O)[C@@H]1CCC(=O)N1C1(c2ccccc2)c2ccccc2-c2ccccc21`, the EC50 is reported as > 200 µM and the IC50 is reported as 141 µM.
For `CC(O[Si](C)(C)C)C1C=CC(C)n2c(=O)n(-c3ccccc3)c(=O)n21` (centres undefined), the outcome was “inactive”.
For `NCCSSCCCCSSCCN`, the EC50 was > 200 µM and the IC50 was 12.3 µM.
For `CC1(C)CN=C(Nc2ccc(F)c(Cl)c2)S1`, the EC50 was > 200 µM and the IC50 was > 200 µM.
`CSc1nc(C)c(C(=O)CCN2CCOCC2)s1` was tested, and the EC50 was > 200 µM and the IC50 was 10 µM.
With `Cn1c(=O)cc(Nc2ccc(N)cc2)[nH]c1=O` the EC50 was > 200 µM and the IC50 was > 200 µM.
For `O=C1/C(=C/c2ccccc2)CCCC12C(c1ccccc1)N2Cc1ccccc1` (centres undefined), the EC50 was > 200 µM and the IC50 was 7.41 µM.
In the case of `CN(C)CCCC12CCCCC1=Nc1ccccc12` (centres undefined), the EC50 is reported as > 200 µM and the IC50 is reported as 7.76 µM.
With `CCc1cccc(C)c1NC(=O)CCc1n[nH]c(=S)o1` the EC50 was > 617 µM and the IC50 was > 617 µM.
`NC1=NC2OC(CO)C(O)C2O1` (centres undefined) was tested, and the EC50 was > 200 µM and the IC50 was > 200 µM.
`CC(C)(NO)/C(=N\O)c1ccccc1` was tested, and the EC50 was > 200 µM and the IC50 was > 200 µM.
With `CCOC(=O)c1cc2c([nH]1)c(OC(C)=O)cc1c2ccn1Cc1ccccc1` the EC50 was > 200 µM and the IC50 was > 200 µM.
`NC1=NCN2C(=N1)OC1C(O)C(CO)OC12` (centres undefined) was tested, and the EC50 was > 200 µM and the IC50 was > 200 µM.
In the case of `c1cc2nc(c1)CSCCCCCCCCSC2`, the EC50 is reported as > 35.5 µM and the IC50 is reported as > 35.5 µM.
In the case of `CCC[CH2][Sn]1([CH2]CCC)[O]C(=O)c2cccc(OC)c2[O]1`, the outcome is reported as “inactive”.
`Cc1cn(C2CC(NC(=O)NO)C(CO)O2)c(=O)[nH]c1=O` (centres undefined) was tested, and the EC50 was > 200 µM and the IC50 was > 200 µM.
In the case of `Cc1nn(C(=O)c2ccccc2O)c2c1C(c1ccccc1)SC(N)=N2` (centres undefined), the EC50 is reported as > 2 µM and the IC50 is reported as 0.417 µM.
In the case of `CCCCC1CC(c2cccc([N+](=O)[O-])c2)=NO1` (centres undefined), the EC50 is reported as > 15.1 µM and the IC50 is reported as > 15.1 µM.
For `O=C(O)Cc1ccc2c(c1)sc1nc(-c3ccc(Br)cc3)cn12`, the EC50 was > 200 µM and the IC50 was 141 µM.
With `Fc1cccc(F)c1C1SCc2nc3ccc(Cl)cc3n21` (centres undefined) the EC50 was 4.07 µM and the IC50 was > 200 µM.
With `Cc1nc(N)c(N2CCN(CN)CC2)c(=O)[nH]1` the EC50 was > 200 µM and the IC50 was > 200 µM.
In the case of `COC1OC(CS)C(N)C1OS(C)(=O)=O` (centres undefined), the EC50 is reported as > 200 µM and the IC50 is reported as 155 µM.
`O=[N+]([O-])C(C(Cl)=C(Cl)Cl)=C(n1nnc2ccccc21)n1nnc2ccccc21` was tested, and the EC50 was > 200 µM and the IC50 was 26.9 µM.
For `C/C=C/CSc1cc(NC(=S)c2ccsc2C)ccc1Cl`, the EC50 was 0.263 µM and the IC50 was 12.3 µM.
`CC(=O)C1(c2ccccc2)CCNCC1` was tested, and the outcome was “inactive”.
In the case of `O=c1ccn(C2OC(CO)CC2F)c(=O)[nH]1` (centres undefined), the EC50 is reported as > 676 µM and the IC50 is reported as > 676 µM.
For `C=C(NC(=O)C(=C)NC(=O)c1ccc2c(n1)-c1coc(n1)C(=C)NC(=O)C(=C)NC(=O)c1nc(oc1C)C(=C)NC(=O)C(C(C)(C)O)NC(=O)C(=C)NC(=O)c1coc(n1)/C(=C/C)NC(=O)[C@H]([C@@H](C)O)NC(=O)c1csc-2n1)C(N)=O` (some centres undefined), the EC50 was > 100 µM and the IC50 was > 100 µM.
`CSc1nc2c(nc(N)n2C2OC(CO)C(O)C(O)C2O)c(=O)[nH]1` (centres undefined) was tested, and the outcome was “inactive”.
For `CC(C)C(NC(=O)CNC(=O)C1CCCN1C(=O)C(NC(=O)OC(C)(C)C)C(C)C)C(=O)NCC(=O)OCc1ccccc1` (centres undefined) (Boc-VPGVG-OBn; configuration not given here), the EC50 was > 200 µM and the IC50 was 117 µM.
With `Cc1nc2c(=S)nc[nH]c2n1Nc1ccccc1` the EC50 was > 200 µM and the IC50 was 72.4 µM.
For `C=C(C)C(OC(C)=O)C(OC(C)=O)c1c(OC)ccc2ccc(=O)oc12` (centres undefined), the EC50 was > 50.1 µM and the IC50 was > 50.1 µM.
For `CN(C)CC1CCCCCCCCCCCCC(CN(C)C)C1=O` (centres undefined), the EC50 was > 21.4 µM and the IC50 was > 21.4 µM.
`COc1ccc([C@H]2c3cc4c(cc3OC(O)(CO)[C@H]2C(=O)O)OCO4)c(OC)c1` (some centres undefined) (tested in a mixture with another compound) was tested, and the outcome was “inactive”.
In the case of `Cc1cnc(SCCN(C)C)nc1-c1cccs1`, the EC50 is reported as > 891 µM and the IC50 is reported as 22.4 µM.
In the case of `CC(=O)SCCC1c2[nH]c3ccccc3c2CCN1O` (centres undefined), the outcome is reported as “inactive”.
For `Cc1ccc(C)c2c1OC(=O)C1CNCOC21` (centres undefined), the EC50 was > 50.1 µM and the IC50 was > 50.1 µM.
For `NC(=O)NC(=O)C1CCC(=O)N1S(=O)(=O)c1ccc(Cl)cc1` (centres undefined), the EC50 was > 724 µM and the IC50 was 141 µM.
With `CSC(=NC(=O)c1ccccc1Cl)SCCSC(=NC(=O)c1ccccc1Cl)SC` the EC50 was > 347 µM and the IC50 was > 347 µM.
`Oc1ccc2ccccc2c1C1=NNc2n[nH]c(=S)n2N1` was tested, and the EC50 was > 148 µM and the IC50 was 19.1 µM.
`O=Cc1ccc2c(c1)C(O)NC(=O)O2` (centres undefined) showed an EC50 of 28.2 µM and an IC50 of 72.4 µM.
With `CCNc1cnc2c(n1)c(=O)n(C)c(=O)n2C` the EC50 was > 200 µM and the IC50 was > 200 µM.
With `COc1ccc(C(=O)C(C(=O)CCC(=O)Nc2cccc(Cl)c2)c2ccc(OC)cc2)cc1` (centres undefined) the EC50 was > 15.5 µM and the IC50 was > 15.5 µM.
